# Laboratory results published in the supplement of paper PMC4862054.
# Tests used:
# Experiment in all cases: normalised response (% of control), CellTiter-Glo; higher = more viable cells (100 = DMSO, 0 = benzethonium chloride kill control)
# Settings in all cases: incubation time: 72 h
# [1] = tested on: BT-474
# How it was run: (§1)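 The table gives the normalised signal for a single concentration in each entry. Breast cancer cell lines were seeded (20 µl suspension) into 384-well plates holding compound at 5 concentrations in 10-fold steps over a compound-specific 10,000-fold range and incubated 72 h, then read for CellTox Green fluorescence (485/520 nm) and CellTiter-Glo luminescence. Normalisation on each plate used 0.1 % DMSO (100) and a positive kill control (0).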
# [2] = tested on: BT-549
# How it was run: as §1
# [3] = tested on: CAL-85-1
# How it was run: as §1
# [4] = tested on: DU-4475
# How it was run: as §1
# [5] = tested on: HCC1599
# How it was run: as §1
# [6] = tested on: HCC1937
# How it was run: as §1
# [7] = tested on: HDQ-P1
# How it was run: as §1
# [8] = tested on: Hs578T
# How it was run: as §1
# [9] = tested on: MCF-10A
# How it was run: as §1
# [10] = tested on: MDA-MB-231
# How it was run: as §1
# [11] = tested on: MDA-MB-468
# How it was run: as §1
# [12] = tested on: MFM-223
# How it was run: as §1
# [13] = tested on: SK-BR-3
# How it was run: as §1
Compound,normalised response [1] [%],normalised response [2] [%],normalised response [3] [%],normalised response [4] [%],normalised response [5] [%],normalised response [6] [%],normalised response [7] [%],normalised response [8] [%],normalised response [9] [%],normalised response [10] [%],normalised response [11] [%],normalised response [12] [%],normalised response [13] [%]
COc1ncc(-c2ccc3nccc(-c4ccnnc4)c3c2)cc1NS(=O)(=O)c1ccc(F)cc1F (100 nM),52.7,27.1,31.8,78.1,55.4,54.6,25.5,39,31.8,55,37.9,37,23.6
C[C@@]1(C(=O)Nc2ccc(F)nc2)CCCN1c1nc(Nc2cc(C3CC3)n[nH]2)c2cccn2n1 (1000 nM),62.8,61.4,57.6,80.4,72.8,86.9,46.7,86.5,20.4,62.4,21.4,58.1,67.9
COc1c(C)cnc(Cn2cnc3c(Cl)nc(N)nc32)c1C [BIIB021] (1000 nM),31.1,37.3,26.9,0.4,54.3,24.7,29.5,55.5,15.4,25.5,43.4,40.2,37.8
CC(C)C[C@H](NC(=O)[C@H](Cc1ccccc1)NC(=O)c1cnccn1)B(O)O [Bortezomib] (100 nM),1.56,1.75,1.51,13,56.6,59,3.18,0.6,68.6,0.34,0.63,3.48,4.21
CS(=O)(=O)OCCCCOS(C)(=O)=O [Busulfan] (10000 nM),93.7,97.3,98.2,107,103,99.6,98.3,109,98.9,102,109,107,110
C#Cc1cccc(Nc2ncnc3cc(OC)c(OCCCCCCC(=O)NO)cc23)c1 [CUDC-101] (1000 nM),72.9,66.9,6.55,64.1,47.9,63.6,70,73.9,28.9,39.1,18.8,33.4,33.5
COc1cccc2c1C(=O)c1c(O)c3c(c(O)c1C2=O)C[C@@](O)(C(C)=O)C[C@@H]3O[C@H]1C[C@H](N)[C@H](O)[C@H](C)O1 [Daunorubicin] (100 nM),82.5,68.9,97.5,86.9,103,98.2,91.8,92.6,103,88.7,54.9,115,91.9
CN1CCN(c2ccc3nc(-c4c(N)c5c(F)cccc5[nH]c4=O)[nH]c3c2)CC1 [Dovitinib] (1000 nM),95.1,95.5,117,101,106,94.7,102,101,97.2,101,93.7,95.4,97.2
O=c1[nH]c(=O)n([C@H]2C[C@H](O)[C@@H](CO)O2)cc1F [Floxuridine] (1000 nM),67.1,85.4,42.7,92.8,67.7,56.4,83.9,13.5,106,76.8,69.4,104,54.2
O=c1[nH]cc(F)c(=O)[nH]1 [Fluorouracil] (1000 nM),111,104,52.8,90.2,84,94.7,92.2,97.1,116,97.7,98.7,102,78.9
C[C@@H]1C=C2C(=O)O[C@@H]3CC[C@H](C1)[C@]23O [Galiellalactone] (5000 nM),99.3,97.6,96.2,102,98.4,98.4,100,111,105,114,82,104,102
COC1=C2C[C@@H](C)C[C@H](OC)[C@H](O)[C@@H](C)/C=C(\C)[C@H](OC(N)=O)[C@@H](OC)/C=C\C=C(/C)C(=O)NC(=CC1=O)C2=O [Geldanamycin] (1000 nM),101,81.2,92.7,91.4,99.6,89.8,97.2,103,99.7,97.9,104,40.4,87.1
Cn1cnc2c(F)c(Nc3ccc(Br)cc3F)c(C(=O)NOCCO)cc21 [MEK-162] (100 nM),88.8,100,99.2,42.6,104,95,71.4,86.2,49,92,94.7,102,101
CCOc1cc2ncc(C#N)c(Nc3ccc(OCc4ccccn4)c(Cl)c3)c2cc1NC(=O)/C=C/CN(C)C [Neratinib] (100 nM),102,97.5,67.9,101,102,88,69.8,103,43.1,102,82.8,101,25
